Measurements: ChEMBL document CHEMBL2203044, “Discovery of di-indolinone as a novel scaffold for protein tyrosine phosphatase 1B inhibitors” (Bioorg Med Chem Lett, 2012)

What was measured:
[1] = molecular target: T1, Tyrosine-protein phosphatase non-receptor type 1 (Homo sapiens) (UniProt P18031); test: Inhibition of recombinant PTP1B using para-nitrophenylphosphate as substrate at 20 ug/mL by high throughput screening assay
T1 sequence (whole entry): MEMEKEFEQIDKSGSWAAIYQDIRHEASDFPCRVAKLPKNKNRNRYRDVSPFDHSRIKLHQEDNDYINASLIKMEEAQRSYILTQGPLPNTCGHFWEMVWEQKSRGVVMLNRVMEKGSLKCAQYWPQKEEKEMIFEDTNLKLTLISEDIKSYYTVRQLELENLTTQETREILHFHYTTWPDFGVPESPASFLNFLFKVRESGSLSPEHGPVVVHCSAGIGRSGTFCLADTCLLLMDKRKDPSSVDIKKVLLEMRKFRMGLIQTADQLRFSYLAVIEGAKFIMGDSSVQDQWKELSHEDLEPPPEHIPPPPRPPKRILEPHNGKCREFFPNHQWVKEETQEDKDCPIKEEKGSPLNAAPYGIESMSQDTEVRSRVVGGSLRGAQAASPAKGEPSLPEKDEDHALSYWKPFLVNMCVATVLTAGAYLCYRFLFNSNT

[2] = molecular target: T2, Tyrosine-protein phosphatase non-receptor type 1 (Homo sapiens, UniProt P18031); test: Inhibition of recombinant PTP1B using para-nitrophenylphosphate as substrate by high throughput screening assay
T2 sequence (P18031 whole entry): T1 sequence (whole entry)

[3] = molecular target: Receptor-type tyrosine-protein phosphatase F (Homo sapiens, UniProt P10586); test: Inhibition of LAR
Receptor-type tyrosine-protein phosphatase F, sequence (P10586 whole entry): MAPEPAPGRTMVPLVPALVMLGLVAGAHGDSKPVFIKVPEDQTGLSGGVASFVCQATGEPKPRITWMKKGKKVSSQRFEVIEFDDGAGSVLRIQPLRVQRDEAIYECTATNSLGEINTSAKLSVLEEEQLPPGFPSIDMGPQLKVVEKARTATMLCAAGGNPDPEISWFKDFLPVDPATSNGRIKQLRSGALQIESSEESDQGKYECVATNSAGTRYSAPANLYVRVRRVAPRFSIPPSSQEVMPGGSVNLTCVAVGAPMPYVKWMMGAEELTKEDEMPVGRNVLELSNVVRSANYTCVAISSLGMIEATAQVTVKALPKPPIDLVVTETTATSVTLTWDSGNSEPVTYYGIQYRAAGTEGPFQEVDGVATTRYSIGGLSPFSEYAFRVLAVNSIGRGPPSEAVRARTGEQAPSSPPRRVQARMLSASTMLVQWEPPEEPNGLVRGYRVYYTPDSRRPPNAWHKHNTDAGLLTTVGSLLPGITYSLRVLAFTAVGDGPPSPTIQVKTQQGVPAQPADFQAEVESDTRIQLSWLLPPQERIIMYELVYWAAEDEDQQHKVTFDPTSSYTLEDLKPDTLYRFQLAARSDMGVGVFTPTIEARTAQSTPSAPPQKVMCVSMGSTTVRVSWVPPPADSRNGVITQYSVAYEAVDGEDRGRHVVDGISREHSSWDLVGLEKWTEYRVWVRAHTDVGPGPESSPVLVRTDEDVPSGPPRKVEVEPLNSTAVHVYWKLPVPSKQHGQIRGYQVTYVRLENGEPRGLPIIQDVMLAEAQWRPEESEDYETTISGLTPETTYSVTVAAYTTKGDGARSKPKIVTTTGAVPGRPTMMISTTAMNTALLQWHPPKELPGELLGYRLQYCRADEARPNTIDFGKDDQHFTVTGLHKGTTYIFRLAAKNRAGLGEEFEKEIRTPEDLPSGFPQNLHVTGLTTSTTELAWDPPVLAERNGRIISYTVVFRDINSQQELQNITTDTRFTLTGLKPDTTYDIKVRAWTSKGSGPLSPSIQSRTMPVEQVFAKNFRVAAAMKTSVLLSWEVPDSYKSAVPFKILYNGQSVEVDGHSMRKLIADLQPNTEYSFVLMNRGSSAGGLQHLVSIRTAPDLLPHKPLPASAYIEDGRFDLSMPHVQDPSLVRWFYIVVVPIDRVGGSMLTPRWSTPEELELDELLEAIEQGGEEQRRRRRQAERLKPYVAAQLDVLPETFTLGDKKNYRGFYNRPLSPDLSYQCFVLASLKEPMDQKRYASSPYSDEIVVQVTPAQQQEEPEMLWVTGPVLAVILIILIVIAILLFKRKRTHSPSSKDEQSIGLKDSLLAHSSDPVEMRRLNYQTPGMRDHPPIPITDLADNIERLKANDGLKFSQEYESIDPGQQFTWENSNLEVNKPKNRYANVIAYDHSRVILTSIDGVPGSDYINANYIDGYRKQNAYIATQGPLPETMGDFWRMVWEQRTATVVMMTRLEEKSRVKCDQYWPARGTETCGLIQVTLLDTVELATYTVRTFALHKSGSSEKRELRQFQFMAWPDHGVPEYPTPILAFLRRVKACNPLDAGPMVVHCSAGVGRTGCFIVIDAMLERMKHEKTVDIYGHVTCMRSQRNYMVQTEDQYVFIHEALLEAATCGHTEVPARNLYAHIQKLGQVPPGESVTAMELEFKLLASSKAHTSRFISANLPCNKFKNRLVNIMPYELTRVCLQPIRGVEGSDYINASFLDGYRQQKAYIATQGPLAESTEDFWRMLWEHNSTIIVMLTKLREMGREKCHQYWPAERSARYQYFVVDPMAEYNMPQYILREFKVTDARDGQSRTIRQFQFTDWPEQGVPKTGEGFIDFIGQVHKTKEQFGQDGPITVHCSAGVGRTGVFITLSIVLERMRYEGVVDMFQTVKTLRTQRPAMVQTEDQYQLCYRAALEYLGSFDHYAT

[4] = molecular target: Tyrosine-protein phosphatase non-receptor type 6 (Homo sapiens, UniProt P29350); test: Inhibition of SHP-1
Tyrosine-protein phosphatase non-receptor type 6, sequence (P29350 whole entry): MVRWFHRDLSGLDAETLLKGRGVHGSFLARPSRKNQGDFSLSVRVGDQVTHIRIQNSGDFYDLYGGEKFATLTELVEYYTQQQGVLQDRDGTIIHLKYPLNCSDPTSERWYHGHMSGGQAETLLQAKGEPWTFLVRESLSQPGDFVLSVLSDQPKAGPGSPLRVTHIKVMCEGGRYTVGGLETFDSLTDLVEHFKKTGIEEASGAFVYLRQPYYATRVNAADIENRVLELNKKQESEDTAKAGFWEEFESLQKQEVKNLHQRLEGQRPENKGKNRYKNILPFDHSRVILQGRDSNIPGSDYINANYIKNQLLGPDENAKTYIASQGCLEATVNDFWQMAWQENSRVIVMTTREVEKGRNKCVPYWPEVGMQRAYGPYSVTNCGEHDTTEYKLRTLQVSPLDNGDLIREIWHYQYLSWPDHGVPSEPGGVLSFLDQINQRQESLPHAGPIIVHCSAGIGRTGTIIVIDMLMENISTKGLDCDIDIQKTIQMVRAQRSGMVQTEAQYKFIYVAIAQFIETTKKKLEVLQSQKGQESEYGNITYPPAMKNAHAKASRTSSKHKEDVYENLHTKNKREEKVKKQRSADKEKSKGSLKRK

[5] = molecular target: T3, Tyrosine-protein phosphatase non-receptor type 2 (Homo sapiens, UniProt P17706); test: Inhibition of TCPTP
T3 sequence (P17706 whole entry): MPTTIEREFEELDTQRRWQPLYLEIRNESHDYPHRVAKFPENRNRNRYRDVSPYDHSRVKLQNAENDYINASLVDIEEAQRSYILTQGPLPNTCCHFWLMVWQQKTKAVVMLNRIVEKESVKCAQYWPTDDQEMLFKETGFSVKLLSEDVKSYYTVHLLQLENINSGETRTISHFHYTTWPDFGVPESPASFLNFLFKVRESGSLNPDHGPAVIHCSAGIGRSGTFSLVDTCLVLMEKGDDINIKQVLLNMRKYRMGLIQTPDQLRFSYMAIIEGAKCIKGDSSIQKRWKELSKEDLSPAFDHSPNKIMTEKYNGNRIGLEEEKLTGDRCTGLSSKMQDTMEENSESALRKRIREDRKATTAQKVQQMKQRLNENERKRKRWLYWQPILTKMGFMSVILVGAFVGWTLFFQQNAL

SMILES	IC50 [2]	also measured
COC(=O)[C@@H]1CCCCN1Cc1ccc(/C=C2/C(=O)Nc3ccc(F)cc32)o1	–	inhibition [1]: 14%
Cc1ccc2c(c1)/C(=C\c1ccc(CN3C(=O)C(=O)c4ccccc43)o1)C(=O)N2	9.82 µM	–
Cc1ccc2c(c1)C(=O)C(=O)N2Cc1ccc(/C=C2/C(=O)Nc3ccccc32)o1	6.71 µM	–
Cc1ccc2c(c1)C(=O)C(=O)N2Cc1ccc(/C=C2/C(=O)Nc3ccc(C)cc32)o1	5.7 µM	–
COC(=O)[C@@H]1CCCCN1Cc1ccc(/C=C2/C(=O)N(Cc3ccc(C=O)o3)c3ccc(F)cc32)o1	–	inhibition [1]: 55%
O=C1Nc2ccccc2/C1=C\c1ccc(CN2C(=O)C(=O)c3ccccc32)o1	7.63 µM	–
O=C1Nc2ccccc2/C1=C\c1ccc(CN2C(=O)C(=O)c3cc(Cl)ccc32)o1	4.59 µM	–
COC(=O)[C@@H]1CCCCN1Cc1ccc(/C=C2/C(=O)N(Cc3ccc(/C=C4/C(=O)Nc5ccccc54)o3)c3ccc(F)cc32)o1	–	inhibition [1]: 75%
O=Cc1ccc(CN2C(=O)C(=O)c3ccccc32)o1	> 60 µM	–
Cc1ccc2c(c1)C(=O)C(=O)N2Cc1ccc(/C=C2/C(=O)Nc3ccc(Cl)cc32)o1	3.46 µM	–
O=C1Nc2ccc([N+](=O)[O-])cc2/C1=C\c1ccc(CN2C(=O)C(=O)c3ccccc32)o1	5.35 µM	–
Cc1ccc2c(c1)/C(=C\c1ccc(CN3C(=O)C(=O)c4cc(Cl)ccc43)o1)C(=O)N2	3.37 µM	–
O=C1Nc2ccc(Br)cc2/C1=C\c1ccc(CN2C(=O)C(=O)c3ccccc32)o1	2.8 µM	IC50 [3]: > 100 µM; IC50 [4]: > 100 µM; IC50 [5]: 11.5 µM

More lines, main results first:

IC50 [2]	SMILES	also measured
> 60 µM	Cc1ccc2c(c1)C(=O)C(=O)N2Cc1ccc(C=O)o1	–
2.3 µM	O=C1Nc2ccc(Cl)cc2/C1=C\c1ccc(CN2C(=O)C(=O)c3cc(Cl)ccc32)o1	IC50 [3]: > 100 µM; IC50 [4]: > 100 µM; IC50 [5]: 18.8 µM
> 60 µM	O=Cc1ccc(CN2C(=O)C(=O)c3cc(Cl)ccc32)o1	–
4.41 µM	O=C1Nc2ccc(Cl)cc2/C1=C\c1ccc(CN2C(=O)C(=O)c3ccccc32)o1	–
5.23 µM	Cc1ccc2c(c1)C(=O)C(=O)N2Cc1ccc(/C=C2/C(=O)Nc3ccc(Br)cc32)o1	–
